Tests used:
[1] = test system: DNA topoisomerase 1 (Bos taurus); assay: Ratio of DNA relaxation times by topoisomerase in presence of 2 uM of compound (t1/e(+drug) / t 1/e(-drug))
[2] = test system: DNA topoisomerase 1 (Bos taurus); assay: Ratio of DNA relaxation times by topoisomerase in presence of 18 uM of compound (t1/e(+drug) / t 1/e(-drug))
DNA [3] = assay: Binding constant was measured for DNA binding at 20 uM concentration
[4] = test system: DNA topoisomerase 1 (Bos taurus); assay: Ratio of DNA relaxation times by topoisomerase in presence of 20 uM of compound (t1/e(+drug) / t 1/e(-drug)); Complete inhibition
[5] = test system: DNA topoisomerase 1 (Bos taurus); assay: Ratio of DNA relaxation times by topoisomerase in presence of 20 uM of compound (t1/e(+drug) / t 1/e(-drug)); Initial complete inhibition
[6] = test system: DNA topoisomerase 1 (Bos taurus); assay: Ratio of DNA relaxation times by topoisomerase in presence of 17 uM of compound (t1/e(+drug) / t 1/e(-drug)); Initial complete inhibition
DNA [7] = assay: Binding constant was measured for DNA binding at 17 uM concentration
[8] = test system: DNA topoisomerase 1 (Bos taurus); assay: Ratio of DNA relaxation times by topoisomerase in presence of 9 uM of compound (t1/e(+drug) / t 1/e(-drug))

| Compound | Ratio [1] | Ka1 (DNA [3]) | Ratio [4] | also measured |
| --- | --- | --- | --- | --- |
| COc1cccc2c1C(=O)c1c(O)c3c(c(O)c1C2=O)C[C@@](O)(C(C)=O)C[C@@H]3OC1OC(C)C(O)C(O)C1I (stereo in doubt; form 1) | 0.76 | – | – | Ratio [2]: 1 |
| COc1cccc2c1C(=O)c1c(O)c3c(c(O)c1C2=O)C[C@@](O)(C(C)=O)C[C@@H]3OC1OC(C)C(O)C(O)C1I (stereo in doubt; 2) | 2 | 120 | Complete inhibition | – |
| COc1cccc2c1C(=O)c1c(O)c3c(c(O)c1C2=O)C[C@@](O)(C(C)=O)C[C@@H]3OC1OC(c2ccccc2)C(O)C(O)C1I (stereo not given in full) | 3.5 | 400 | Complete inhibition | – |
| COc1cccc2c1C(=O)c1c(O)c3c(c(O)c1C2=O)C[C@@](O)(C(C)=O)C[C@@H]3OC1OC(C)C(CC2CC(O)C(CC3CCC(=O)C(C)O3)CO2)C(O)C1I (stereo not given in full) | 1.4 | – | – | Ratio [5]: Initial complete inhibition |
| COc1cccc2c1C(=O)c1c(O)c3c(c(O)c1C2=O)C[C@@](O)(C(C)=O)C[C@@H]3OC1OC(C)C(O)C(O)C1I (stereo in doubt; form 2) | 1.5 | – | – | Ratio [6]: Complete inhibition; Ka1 (DNA [7]): 5 |
| COc1cccc2c1C(=O)c1c(O)c3c(c(O)c1C2=O)C[C@@](O)(C(C)=O)C[C@@H]3OC1CC(O)C(CC2CC(O)C(CC3CCC(=O)C(C)O3)CO2)C(C)O1 (stereo not given in full) | 0.92 | – | – | Ratio [8]: 1.4 |

From ChEMBL document CHEMBL1127472, “Inhibition of topoisomerase I by anthracycline antibiotics: evidence for general inhibition of topoisomerase I by DNA-binding agents” (J Med Chem, 1994)
